From patent publication US4024256A, “Method and composition for treating urinary tract infections” (priority 1975, dated 1977)
Values joined by “and” are separate entries in the source; they are usually repeats but may differ in a detail not shown here. Identical values can stand only once. “Also recorded” adds a separate entry of the source. Like-named read-outs stand apart in the source and are kept apart here.

How the values were obtained:
Proteus mirabilis [1] = experiment: Proteus mirabilis infected bladder stones (zinc disc) in rats; format: in vivo, male Sprague-Dawley rats
Protocol: This example was carried out to illustrate the effectiveness of administering a source of hydroxamate groups, e.g., acetohydroxamic acid in eliminating the pathogenicity of urinary tract infections and in dissolving or reducing infected bladder stones.
The formation of infected bladder stones was induced in 250 gram male Sprague-Dawley rats, according to the method described in "Experimental Urolithiasis VIII -- Furadantin in Treatment of Experimental Proteus Infection with Stone Formation" C. W. Vermuelen and R. Goetz, Journal of Urology, 72:99, 1954. Rats wer anesthetized with ether and the abdominal wall swabbed with 70% ethyl alcohol. The urinary bladder was entered through a small suprapubic incision. Zinc discs, 6 mm. in diameter, were dipped into a saline suspension containing 10^7 Proteus mirabilis per ml (infective discs) and immediately inserted into the bladder. Discs handled in this fashion carried 10^5 ± 15% organisms. The bladder was closed with a single purse-string suture of 3-0 chromic catgut, and the skin was approximated with metallic clips. All animals were fasted overnight following the surgical procedure and resumed their usual diet the following day.
Rats were housed individually in stainless steel metabolic cages and were fed Purina Rat Chow pellets ad lib. Fluid was given in stainless steel cups as a solution of 5-20% sucrose in water.

[2] = characteristics of acetohydroxamic acid (Table 1), pKa; format: physicochemical
Description: These aliphatic hydroxamic acids including formohydroxamic acid, acetohydroxamic acid, propionohydroxamic acid and isobutyhydroxamic acid. […] This source of hydroxamate groups has the following characteristics: […]

Proteus rettgeri [3] = experiment: dynamic study resembling a Proteus infected human bladder (FIG. 3); format: cell-based
Protocol: Dynamic studies were conducted to further illustrate the synergistic effect associated with the combined presence of a source of methenamine, i.e., methenamine itself and a source of hyroxamate groups, i.e., acetohydroxamic acid in the urine. […] Utilizing a multicassetts roller pump, urine of a pH of 5.85 was pumped at 40 milliliters per hour from three reservoir flasks into three reaction chambers. […] An aqueous solution of 18 milligrams per milliliter of methenamine at a pH of 7.5 was pumped into reaction chambers 1 and 3 at a rate of two milliliters per hour yielding a final concentration of methenamine of 0.9 milligrams per milliliter. […] The reaction chambers contained gently rotating magnetic stirrers and were kept in a warm bath at 37° C. […] At 4 - 6 hour intervals the volume of urine in each reaction chamber was recorded, the pH of each reaction chamber was determined and serial dilutions were carried out for bacterial enumeration.

Proteus species [4] = experiment: static study in synthetic urine: anti-bacterial effect, all Proteus species studied; format: cell-based; conditions: general statement
Protocol: (§1) Static studies were conducted to illustrate the synergistic effect achieved in accordance with the present invention through the combined employment of a source of methenamine, i.e., methenamine itself and a source of hydroxamate groups, i.e., acetohydroxamic acid. In order to achieve reproducibility of results with large quantities or urine required for these studies a synthetic urine was formulated based on the proportion of solutes found in the urine from normal human subjects. The composition of such urine was as follows: Brain heart infusion (BHI) broth in a final concentration of 5% was added to support bacterial growth. The pH of the synthetic urine prior to addition of the BHI broth was 5.7 - 5.8. […] In these tests the methenamine was utilized in a final concentration of 0.9 milligrams per milliliter. […] Dally and […], 1969, Analytical BioChem 28:13-21. […] These concentrations which were selected in the static studies were concentrations which would be achievable in the urine of patients with normal renal function. […] At each pH level a set of four tubes was obtained, with these tubes being as follows: 1. Urine alone (control); 2. Urine plus methenamine; 3. Urine plus acetohydroxamic acid; and 4. Urine plus acetohyroxamic acid plus methenamine. […] At varying time intervals aliquots were removed for pH determination and bacterial enumeration by serial tenfold dilution.

Proteus species [5] = experiment: static study in synthetic urine: inhibition of alkalinization by Proteus species; format: cell-based; conditions: for effect on alkalinization: methenamine 0.9 mg/ml
Protocol: as §1

bacterial urease = conditions: cited from earlier work
Proteus mirabilis [6] = experiment: dynamic model of the urinary tract (FIGS. 16, 17); format: cell-based
Protocol: This example was carried out using a dynamic model as described in connection with Example 2. […] Proteus species, isolated from the urine of patients with known urinary infection, were maintained in the laboratory by monthly transfer on agar […]. These organisms grew to about 10^9 colony forming units (cfu) per ml after overnight growth at 37° C in brain heart infusion broth (BHI). […] The pH of this synthetic urine was 5.85. […] In this dynamic system urine with or without acetohydroxamic acid was pumped at 48 ml/hr from reservoirs via an auto-analyzer pump into reaction chambers which were incubated in a shaking water bath at 37° C. […] Every six hours the reaction chambers were emptied except for a 5 ml residual, and the sequence was repeated. In these experiments the pH, ammonia concentration and cfu per ml urine were determined for each reaction chamber at the end of each six hour period.

Proteus [7] = experiment: static-dynamic system, bacteriostasis against Proteus, statements over all experiments; format: cell-based, Proteus mirabilis, Proteus rettgeri, Proteus morgani
Protocol: In this example in vitro investigations were carried out using a static-dynamic system delineating (1) bacteriostatic dose-response relation for methenamine against Proteus, and (2) a synergistic bacteriostatic dose-response relation for methenamine and acetohydroxamic acid against Proteus. […] The tubes were placed in a bacteriological incubator at 37° C. […] Incubation of the tubes at 37° and sequential dilutions were made a 6 hour intervals for 24 hours. The variables for each of eight experiments are detailed in Table 2. Bacterial colony forming units (cfu) and urine pH were determined at the beginning and at the completion of each six hour incubation. The cfu units present after six hours of incubation are graphed in FIGS. 4-15. […] When bacteriostatis was absent, the number of cfu after six hours of incubation was equal to or greater than the number of cfu at the beginning of incubation. A strain of Proteus mirabilis isolated from the urine of patients with urinary tract infections was used in most experiments. Overnight growth in brain heart infusion (BHI) broth regularly produced 10^9 cfu/ml. The overnight culture was centrifuged at 3000 rpm for 20 minutes. The supernatant was discharged, and the bacterial pellet was resuspended in an equal volume of synthetic urine. […]

Proteus rettgeri [8] = experiment: static study in synthetic urine: viable bacteria, Proteus rettgeri (FIG. 2); format: cell-based
Protocol: as §1

[9] = tested on: urease producing bacteria; conditions: cited from earlier work
Proteus mirabilis [10] = experiment: static-dynamic system, bacteriostasis against Proteus mirabilis (Experiments A-J); format: cell-based
Protocol: In this example in vitro investigations were carried out using a static-dynamic system delineating (1) bacteriostatic dose-response relation for methenamine against Proteus, and (2) a synergistic bacteriostatic dose-response relation for methenamine and acetohydroxamic acid against Proteus. […] The tubes were placed in a bacteriological incubator at 37° C. […] Incubation of the tubes at 37° and sequential dilutions were made a 6 hour intervals for 24 hours. The variables for each of eight experiments are detailed in Table 2. Bacterial colony forming units (cfu) and urine pH were determined at the beginning and at the completion of each six hour incubation. The cfu units present after six hours of incubation are graphed in FIGS. 4-15. […] When bacteriostatis was absent, the number of cfu after six hours of incubation was equal to or greater than the number of cfu at the beginning of incubation. A strain of Proteus mirabilis isolated from the urine of patients with urinary tract infections was used in most experiments. Overnight growth in brain heart infusion (BHI) broth regularly produced 10^9 cfu/ml. The overnight culture was centrifuged at 3000 rpm for 20 minutes. The supernatant was discharged, and the bacterial pellet was resuspended in an equal volume of synthetic urine. The bacteria were resuspended in synthetic urine to prevent differences in pH as the bacteria were inoculated into tubes of synthetic urine. […] The results are illustrated in FIGS. 4-15 which relates respectively to Experiment A-L of Table 2. Each of FIGS. 4-15 represents colony forming units (cfu) present at the completion of six hour incubations. 100-fold dilutions were made prior to initiating subsequent six hour incubations. Each figure also includes a line representative of theoretically perfect bacteriostasis.

[11] = cited from earlier work
Proteus [12] = experiment: preliminary investigations in the dynamic system; format: cell-based; conditions: methenamine 0.9 mg/ml
Description: Utilizing a multicassetts roller pump, urine of a pH of 5.85 was pumped at 40 milliliters per hour from three reservoir flasks into three reaction chambers. […] An aqueous solution of 18 milligrams per milliliter of methenamine at a pH of 7.5 was pumped into reaction chambers 1 and 3 at a rate of two milliliters per hour yielding a final concentration of methenamine of 0.9 milligrams per milliliter. […] The reaction chambers contained gently rotating magnetic stirrers and were kept in a warm bath at 37° C.

[13] = individual animal, average of day individual values, listed as AHA
[14] = individual animal, listed as AHA

SMILES: CC(=O)NO [acetohydroxamic acid]
- urine pH (group) (Proteus mirabilis [1]; acetohydroxamic acid treated animals): remained in the normal range; also recorded: in the physiological range
- gross evidence of pyelonephritis or renal stone formation (group) (Proteus mirabilis [1]; autopsy): none had gross evidence of pyelonephritis or renal stone formation
- kidney histology (group) (Proteus mirabilis [1]; autopsy): nearly all had normal kidneys histologically
- Autopsy Gross Kidney (Proteus mirabilis [1]; individual animal): Normal
- Autopsy Urine bacteria/ml (Proteus mirabilis [1]; individual animal): > 10^5 bacteria/ml
- survival of animal (Proteus mirabilis [1]; individual animal): Expired
- Urine pH (Proteus mirabilis [1]; [13]): 7.4 and 6.6 and 6.7 and 7.0 and 6.3 and 6.5 and 6.4
- Autopsy Microscopic Kidney (Proteus mirabilis [1]; [14]): Pyelonephritis; also recorded: Normal
- Autopsy Stone Composition (Proteus mirabilis [1]; [14]): Struvite; also recorded: Apatite
- Autopsy Stone wt. (Proteus mirabilis [1]; [14]): 12 mg and 4 mg and 21 mg and 11 mg and 1 mg and 19 mg and 3 mg and 7 mg
- tissue damage and virulence of the disease (Proteus mirabilis [1]; infected rats): tissue damage and virulence of the disease decreased
- P, difference in mean urine pH between control and treated groups (Proteus mirabilis [1]; rat, in vivo): < 0.01
- P, difference in stone formation between control and treated groups (Proteus mirabilis [1]; rat, in vivo): < 0.01
- Proteus mirabilis in urine at autopsy (group) (Proteus mirabilis [1]; seventh day): greater than 10^5 per ml
- bladder stone formation (group) (Proteus mirabilis [1]; seventh day): minimal; also recorded: significantly less bladder stone formation than the control rats
- pKa [2]: 9.32
- alkalinization (Proteus rettgeri [3]; acetohydroxamic acid 1.9 mg/ml): alkalinization of Proteus was inhibited
- bacteriostatic effect (Proteus rettgeri [3]; acetohydroxamic acid 1.9 mg/ml): minor bacteriostatic effect
- anti-bacterial effect with regard to bacteria of the species Proteus (Proteus species [4]): slight anti-bacterial effect
- inhibition of alkalinization (Proteus species [5]; acetohydroxamic acid 1.9 mg/ml, synthetic urine, 37°): inhibited alkalinizaton for the first eight hours
- time within which effect as urease inhibitor was overcome (Proteus species [5]; acetohydroxamic acid 1.9 mg/ml, bacterial proliferation leading to alkaline pH): ≤ 24 h
- urease inhibiting effect (bacterial urease): appear to possess the greatest urease inhibiting effect
- effect on pH (Proteus mirabilis [6]; acetohydroxamic acid 1 mg/ml without methenamine): maintained the pH at normal levels
- bacterial growth (Proteus mirabilis [6]; acetohydroxamic acid, higher concentration 1.0 mg/ml (FIG. 16)): slightly inhibited bacterial growth
- bacteriostatic effect (Proteus [7]; acetohydroxamic acid ≤0.9 mg/ml): no bacteriostatic effect
- concentration of acetohydroxamic acid in urine, mean (150 mg offered daily orally, average 100 mg ingested): 2.88 mg/mL
- Urine Acetohy. [13]: .3 mg/mL and 1.5 mg/mL and 2.5 mg/mL and 1.3 mg/mL and .9 mg/mL and 1.6 mg/mL and .5 mg/mL
- bacteriostatic effect (Proteus rettgeri [8]; acetohydroxamic acid 1.9 mg/ml): slight bacteriostatic effect
- number of bacteria (Proteus rettgeri [8]; acetohydroxamic acid 1.9 mg/ml, within eight to eighteen hours): ~10^8 per milliliter

SMILES: O=CNO [formohydroxamic acid]
- urease inhibiting effect (bacterial urease): appear to possess the greatest urease inhibiting effect

SMILES: CC(C)C(=O)NO [isobutyhydroxamic acid]
- urease inhibiting effect (bacterial urease): appear to possess the greatest urease inhibiting effect

SMILES: C1N2CN3CN1CN(C2)C3 [methenamine mandelate]
- effect on overcoming the alkalinization of the urine ([9]; urinary infections produced by urease producing bacteria): no real effect on overcoming the alkalinization of the urine

SMILES: C1N2CN3CN1CN(C2)C3 [methenamine, hexamethenamine tetramine]
- colony count by the end of the second time period and throughout (Proteus rettgeri [3]; methenamine 0.9 mg/ml): greater than 10^7 per milliliter
- number of bacteria, first six hours (Proteus rettgeri [3]; methenamine 0.9 mg/ml): fell slightly during the first six hours
- pH at the end of each four to eight hour period (Proteus rettgeri [3]; methenamine 0.9 mg/ml): exceeded 8.5
- bacteriostatic effect in alkaline urine versus acidic urine (Proteus mirabilis [10]; alkaline urine (FIGS. 12 and 13; experiments I, J)): much less bacteriostatic in alkaline urine
- bacteriostatic activity (Proteus mirabilis [10]; methenamine 0.05 mg/ml, pH 5.9, 10^4 /ml and 10^5 /ml (Experiments A, B)): some bacteriostatic activity; also recorded: mild bacteriostatic effect
- bacteriostasis (Proteus mirabilis [10]; methenamine 0.05 mg/ml, ≥10^6 /ml Proteus (Experiments C through H)): no bacteriostasis
- bacteriostatic activity (Proteus mirabilis [10]; methenamine 0.05 mg/ml, ≥ 10^6 Proteus/ml (FIGS. 4-7)): little or no bacteriostatic activity
- bacteriostatic effect compared with methenamine 0.1 mg/ml (Proteus mirabilis [10]; methenamine 0.2 mg/ml (FIGS. 8, 9)): consistently exerted a greater bacteriostatic effect than did methenamine 0.1 mg/ml
- bacteriostasis (Proteus mirabilis [10]; methenamine 0.2 mg/ml, acidic urine (Experiments E and F)): bacteriostasis
- effect on alkalinization (Proteus species [5]; between pH 5.3 and 6.5): alkalinization was inhibited in proportion to the initial urine acidity
- effect on alkalinization (Proteus species [5]; initial pH less than 5.3): only a slight upward drift was observed
- effect on alkalinization (Proteus species [5]; pH greater than 6.5): did not alter progressive alkalinization
- release of formaldehyde ([11]; pH 5.0): excellent release of formaldehyde
- release of formaldehyde ([11]; pH 5.5): good release of formaldehyde
- release of formaldehyde ([11]; pH 6.0): generally adequate for the treatment of most urinary tract infections
- conversion and release of formaldehyde ([11]; pH of the urine 6.5): insufficient conversion and release of formaldehyde
- effect on pH (Proteus mirabilis [6]; lower concentrations of methenamine): the pH rapidly became alkaline and remained so throughout
- bacterial growth (Proteus mirabilis [6]; methenamine alone 0.5 mg/ml (FIG. 16)): slightly inhibited bacterial growth
- effect on pH (Proteus mirabilis [6]; methenamine alone, 0.5 mg/ml): initial tendency for the pH to neutralize in the presence of methenamine alone was overcome by the end of 18-24 hours
- bacteriostasis (Proteus [7]; methenamine 0.1 mg/ml, acidic urine, 10^4 - 10^7 per ml): bacteriostasis
- effectiveness at alkaline pH ([9]; methenamine alone, typical anti-bacterial dosage, alkaline pH): not effective at an alkaline pH
- anti-bacterial effect of the methenamine ([9]; pH of the urine reaches 6.5): totally diminished
- growth of Proteus and alkalinization of urine versus synthetic urine alone (Proteus [12]): affected growth of Proteus and alkalinization of urine only slightly
- anti-bacterial effect, dependence on initial pH (Proteus rettgeri [8]; methenamine 0.9 mg/ml): proportional to the initial pH

SMILES: CCC(=O)NO [propionohydroxamic acid]
- urease inhibiting effect (bacterial urease): appear to possess the greatest urease inhibiting effect
